Test results reported in article PMC10131537, “Degradation of neurodegenerative disease-associated TDP-43 aggregates and oligomers via a proteolysis-targeting chimera” (Journal of Biomedical Science, 2023).

Target: T1, cereblon (CRBN) (Homo sapiens, UniProt Q96SW2)
T1 construct: GST-tagged human cereblon/DDB1, co-expressed by baculovirus; with DDB1
Experiment: competitive TR-FRET binding assay versus XL-665-labelled thalidomide

EC50: 600 nM
SMILES: CN(C)c1ccc(-c2nc3ccc(OCCOCCOCCNc4cccc5c4C(=O)N(C4CCC(=O)NC4=O)C5=O)cc3s2)cc1 (stereo not shown) [compound 2, 4-((2-(2-(2-((2-(4-(Dimethylamino)phenyl)benzo[d]thiazol-6-yl)oxy)ethoxy)ethoxy)ethyl)amino)-2-(2,6-dioxopiperidin-3-yl)isoindoline-1,3-dione]
